From patent US20250361230A1, “LATS Inhibitors and Uses Thereof” (The USA, as Represented by the Secretary, Dept. of Heath …, priority 2022, published 2025)

Target: T1, AKT Kinase-NanoLuc fusion in HEK-293 cells (Homo sapiens, UniProt P31749)
T1 construct: host or cells: HEK-293
Assay: NanoBRET target engagement assay in transfected HEK-293 cells, AKT
Assay type: cell-based
Conditions: cellular; read-out: AKT (Cellular) IC50
Summary of the method: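 HEK-293 cells transiently transfected with kinase-NanoLuc fusion plasmid for 22-24 h, then incubated with compound and NanoBRET tracer for 1 hour at 37° C. After substrate plus extracellular NanoLuc inhibitor addition, 460 and 600 nm emissions read; no-tracer-corrected BRET ratio used to derive IC50 values.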

T1 sequence (P31749 whole entry, the tested form may be a part): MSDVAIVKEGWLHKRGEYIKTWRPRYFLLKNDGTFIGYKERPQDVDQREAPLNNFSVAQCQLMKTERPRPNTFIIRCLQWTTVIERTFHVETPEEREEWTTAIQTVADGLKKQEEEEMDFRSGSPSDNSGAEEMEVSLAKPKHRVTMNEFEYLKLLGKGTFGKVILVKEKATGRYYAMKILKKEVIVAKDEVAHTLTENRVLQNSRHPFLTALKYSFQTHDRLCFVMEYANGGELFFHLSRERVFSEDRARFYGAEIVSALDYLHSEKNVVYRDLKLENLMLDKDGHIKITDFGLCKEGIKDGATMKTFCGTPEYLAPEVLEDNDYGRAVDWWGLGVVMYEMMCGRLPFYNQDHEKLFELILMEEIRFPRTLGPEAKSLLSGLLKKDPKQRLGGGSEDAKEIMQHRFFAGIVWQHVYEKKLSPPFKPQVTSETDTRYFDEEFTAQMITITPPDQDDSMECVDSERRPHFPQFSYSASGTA

SMILES | IC50 [µM]
Cc1cc(-c2ccnc3[nH]cc(C#N)c23)cc(F)c1[C@@]1(O)[C@H](C)CN(C(=O)[C@H](CO)N(C)C)C[C@@H]1C [Compound 2023, 4-(4-((3S,4R,5R)-1-(dimethyl-L-seryl)-4-hydroxy-3,5-dimethylpiperidin-4-yl)-3-fluoro-5-methylphenyl)-1H-pyrrolo[2,3-b]pyridine-3-carbonitrile] | > 50
Cc1cc(-c2ccnc3[nH]cc(C#N)c23)cc(F)c1[C@@]1(O)[C@H](C)CNC[C@@H]1C [Compound 2024, 4-(3-fluoro-4-((3S,4s,5R)-4-hydroxy-3,5-dimethylpiperidin-4-yl)-5-methylphenyl)-1H-pyrrolo[2,3-b]pyridine-3-carbonitrile] | > 50
